Our source for the IC50 values is patent publication US12083124B2 (Incyte Corporation, priority 2019, dated 2024).

Read-outs that look alike come from different tables or passages of the source.

Test [1] concerns the target wild-type un-phosphorylated FGFR3 (Homo sapiens, UniProt P22607). The experiment in a line: FGFR Enzymatic Assay (FRET peptide phosphorylation), FGFR3.
Procedure: (§1) The inhibitor potency of the exemplified compounds was determined in an enzyme discontinuous assay that measures peptide phosphorylation using FRET measurements to detect product formation. Inhibitors were serially diluted in DMSO and a volume of 0.2 μL was transferred to the wells of a 384-well plate. […] Appropriate controls (enzyme blank and enzyme with no inhibitor) were included on the plate. […] The 10 μL/well reaction concentration of the peptide substrate was 500 nM whereas the ATP concentration was maintained near or below the ATP Km. The ATP Km values were pre-determined in a separate series of experiments. The reaction plate was incubated at 25° C. for 1 hr and the reactions were ended with the addition of 5 μL/well of quench solution (50 mM Tris, 150 mM NaCl, 0.5 mg/mL BSA, pH 7.8; 45 mM EDTA, 600 nM staurosporin, with Perkin Elmer Lance Reagents at 3.75 nM Eu-antibody PY20 and 180 nM APC-Streptavidin). The plate was allowed to equilibrate for ˜10 minutes at ambient temperature before scanning on a PheraStar plate reader (BMG Labtech) instrument.
(§2) Either GraphPad prism or XLfit was used to analyze the data. The IC50 values were derived by fitting the data to a four parameter logistic equation producing a sigmoidal dose-response curve with a variable Hill coefficient. Prism equation: Y=Bottom+(Top-Bottom)/(1+10^((Log IC50-X)*Hill slope)); XLfit equation: Y=(A+((B−A)/(1+((X/C)^D)))) where X is the logarithm of inhibitor concentration and Y is the response.
(§3) GraphPad prism3 was used to analyze the data. The IC50 values were derived by fitting the data to the equation for a sigmoidal dose-response with a variable slope. Y=Bottom+(Top-Bottom)/(1+10^((Log IC50-X)*Hill Slope)) where X is the logarithm of concentration and Y is the response.
Test [2] concerns the target wild-type un-phosphorylated FGFR1 (Homo sapiens, UniProt P11362). In words: FGFR Enzymatic Assay (FRET peptide phosphorylation), FGFR1. The settings on record: pre-incubated for 4 hours.
Test [3] addresses wild-type un-phosphorylated FGFR2 (Homo sapiens, UniProt P21802). The experiment in a line: FGFR Enzymatic Assay (FRET peptide phosphorylation), FGFR2.
Procedure: as §1, §2, §3
The data in Table 1 was measured in wild-type un-phosphorylated FGFR1, FGFR2, FGFR3, and FGFR4 proteins.
Where [4] appears, read: FGFR1, wild-type un-phosphorylated FGFR1.
Setting [5] is: read-out: FGFR3, wild-type un-phosphorylated FGFR3, pre-incubated for 4 hours.
[6] abbreviates: read-out: FGFR1, wild-type un-phosphorylated FGFR1.
Where [7] appears, read: read-out: FGFR2, wild-type un-phosphorylated FGFR2, pre-incubated for 4 hours.

wild-type un-phosphorylated FGFR1, sequence (P11362 22-822): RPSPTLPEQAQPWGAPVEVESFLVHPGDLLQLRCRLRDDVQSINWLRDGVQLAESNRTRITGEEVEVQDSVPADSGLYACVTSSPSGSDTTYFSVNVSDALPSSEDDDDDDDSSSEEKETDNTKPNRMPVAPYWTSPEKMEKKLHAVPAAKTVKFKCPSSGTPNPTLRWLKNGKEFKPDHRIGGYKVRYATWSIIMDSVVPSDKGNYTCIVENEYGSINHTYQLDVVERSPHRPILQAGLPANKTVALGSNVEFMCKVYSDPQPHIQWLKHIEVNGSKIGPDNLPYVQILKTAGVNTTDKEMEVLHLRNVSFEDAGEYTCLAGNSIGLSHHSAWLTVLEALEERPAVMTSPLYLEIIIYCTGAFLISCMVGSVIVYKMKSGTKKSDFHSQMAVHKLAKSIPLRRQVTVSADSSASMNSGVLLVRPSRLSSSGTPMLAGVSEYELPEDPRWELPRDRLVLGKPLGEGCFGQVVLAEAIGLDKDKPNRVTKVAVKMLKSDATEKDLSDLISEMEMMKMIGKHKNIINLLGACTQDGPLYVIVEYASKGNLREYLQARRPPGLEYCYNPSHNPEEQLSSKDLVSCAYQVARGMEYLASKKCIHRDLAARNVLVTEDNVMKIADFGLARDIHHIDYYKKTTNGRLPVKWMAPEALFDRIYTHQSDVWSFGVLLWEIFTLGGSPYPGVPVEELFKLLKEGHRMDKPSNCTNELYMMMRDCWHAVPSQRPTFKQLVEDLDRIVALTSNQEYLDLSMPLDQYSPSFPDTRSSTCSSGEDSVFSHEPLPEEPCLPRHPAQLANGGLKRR
wild-type un-phosphorylated FGFR2, sequence (P21802 22-821): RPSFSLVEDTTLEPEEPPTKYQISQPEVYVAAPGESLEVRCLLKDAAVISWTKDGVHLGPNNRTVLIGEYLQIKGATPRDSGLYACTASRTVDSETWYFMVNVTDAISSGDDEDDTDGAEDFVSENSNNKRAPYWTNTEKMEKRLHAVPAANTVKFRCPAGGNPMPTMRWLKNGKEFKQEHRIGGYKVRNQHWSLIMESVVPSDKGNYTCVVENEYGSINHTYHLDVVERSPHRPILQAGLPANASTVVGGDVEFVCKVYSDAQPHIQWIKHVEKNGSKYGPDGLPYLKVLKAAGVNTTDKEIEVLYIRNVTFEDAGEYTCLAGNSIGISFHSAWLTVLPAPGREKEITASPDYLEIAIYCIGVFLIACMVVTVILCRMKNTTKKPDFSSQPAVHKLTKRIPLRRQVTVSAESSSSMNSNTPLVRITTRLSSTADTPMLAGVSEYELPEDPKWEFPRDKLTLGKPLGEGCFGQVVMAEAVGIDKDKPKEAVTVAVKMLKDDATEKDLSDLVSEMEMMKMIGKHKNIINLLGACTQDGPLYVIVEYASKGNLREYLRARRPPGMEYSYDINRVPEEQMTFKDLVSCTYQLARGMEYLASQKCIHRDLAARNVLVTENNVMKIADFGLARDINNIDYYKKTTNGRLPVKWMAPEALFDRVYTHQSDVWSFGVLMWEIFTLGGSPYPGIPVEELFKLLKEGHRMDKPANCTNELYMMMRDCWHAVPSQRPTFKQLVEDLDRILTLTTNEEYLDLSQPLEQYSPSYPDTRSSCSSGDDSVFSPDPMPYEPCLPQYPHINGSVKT
wild-type un-phosphorylated FGFR3, sequence (P22607 23-806): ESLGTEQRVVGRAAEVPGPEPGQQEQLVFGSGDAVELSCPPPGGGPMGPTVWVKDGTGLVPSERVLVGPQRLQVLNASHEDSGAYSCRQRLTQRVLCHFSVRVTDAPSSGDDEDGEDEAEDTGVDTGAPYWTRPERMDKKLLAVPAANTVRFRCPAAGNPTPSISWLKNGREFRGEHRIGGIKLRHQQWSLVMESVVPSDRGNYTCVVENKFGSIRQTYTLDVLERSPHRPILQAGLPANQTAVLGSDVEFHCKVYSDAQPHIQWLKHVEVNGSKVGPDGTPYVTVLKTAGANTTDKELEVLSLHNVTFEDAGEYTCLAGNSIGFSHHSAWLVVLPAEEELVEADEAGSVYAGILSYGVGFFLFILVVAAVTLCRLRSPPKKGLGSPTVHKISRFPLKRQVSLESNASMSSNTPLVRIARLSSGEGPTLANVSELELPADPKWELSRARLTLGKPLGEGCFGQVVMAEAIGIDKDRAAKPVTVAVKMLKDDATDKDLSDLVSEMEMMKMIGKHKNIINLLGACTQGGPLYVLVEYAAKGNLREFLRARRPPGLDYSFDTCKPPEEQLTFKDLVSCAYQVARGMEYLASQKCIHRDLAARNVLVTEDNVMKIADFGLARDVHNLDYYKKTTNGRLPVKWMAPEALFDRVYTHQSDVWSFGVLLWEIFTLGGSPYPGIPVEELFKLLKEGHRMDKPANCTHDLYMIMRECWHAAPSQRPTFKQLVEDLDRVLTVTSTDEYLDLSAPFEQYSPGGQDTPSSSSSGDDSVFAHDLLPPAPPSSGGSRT

In the case of `COc1cc2[nH]nc(-c3cnn(C)c3)c2nc1-c1cccc2c1CCC2O` (single isomer, unassigned) [Example 7, 4-(6-Methoxy-3-(1-methyl-1H-pyrazol-4-yl)-1H-pyrazolo[4,3-b]pyridin-5-yl)-2,3-dihydro-1H-inden-1-ol], the IC50 is less than 6 nM in test [1] and 40 to 100 nM in test [2] (setting [4]).
For the compound `COc1cc2[nH]nc(-c3cnn(C)c3)c2nc1-c1cccc2c1CCC2O` (single isomer, unassigned) [Example 8, 4-(6-Methoxy-3-(1-methyl-1H-pyrazol-4-yl)-1H-pyrazolo[4,3-b]pyridin-5-yl)-2,3-dihydro-1H-inden-1-ol], the values for the IC50 in test [1] (setting [5]) and in test [2] (setting [4]) were less than 6 nM and greater than 100 nM, respectively.
As for `COc1cc2[nH]nc(-c3cnn(C)c3)c2nc1-c1cccc2c1CCC2CO` (single isomer, unassigned) [Example 11, (4-(6-Methoxy-3-(1-methyl-1H-pyrazol-4-yl)-1H-pyrazolo[4,3-b]pyridin-5-yl)-2,3-dihydro-1H-inden-1-yl)methanol], the IC50 in test [1] was less than 6 nM; in test [2] (setting [4]), 40 to 100 nM; in test [3] it was less than 6 nM.
`COc1cc2[nH]nc(-c3cnn(C)c3)c2nc1-c1cccc2c1CCC2CO` (single isomer, unassigned) [Example 12, (4-(6-Methoxy-3-(1-methyl-1H-pyrazol-4-yl)-1H-pyrazolo[4,3-b]pyridin-5-yl)-2,3-dihydro-1H-inden-1-yl)methanol]: the figures for the IC50 in test [1] (setting [5]), in test [2] (setting [6]) and in test [3] (setting [7]) were less than 6 nM, 40 to 100 nM and less than 6 nM, respectively.
On to `Cn1cc(-c2n[nH]c3cc(Cl)c(-c4cccc5c4CC(O)C5)nc23)cn1` (single isomer, unassigned) [Example 39, 4-(6-Chloro-3-(1-methyl-1H-pyrazol-4-yl)-1H-pyrazolo[4,3-b]pyridin-5-yl)-2,3-dihydro-1H-inden-2-ol], for which the IC50 was less than 6 nM in test [1], 40 to 100 nM in test [2] (setting [4]) and 6 to 40 nM in test [3] (setting [7]).
Turning to `COc1cc2[nH]nc(-c3ccc(OC4CCOC4)nc3)c2nc1-c1cccc2c1CC(O)C2` (single isomer, unassigned) [Example 73, 4-(6-Methoxy-3-(6-((tetrahydrofuran-3-yl)oxy)pyridin-3-yl)-1H-pyrazolo[4,3-b]pyridin-5-yl)-2,3-dihydro-1H-inden-2-ol], the IC50 is less than 6 nM in test [1], 40 to 100 nM in test [2] (setting [4]) and 6 to 40 nM in test [3] (setting [7]).
Regarding `COc1cc2[nH]nc(-c3ccc(C4CC(=O)N(C)C4)nc3)c2nc1-c1cccc2c1CCC2C#N` (single isomer, unassigned) [Example 75, 4-(6-Methoxy-3-(6-(1-methyl-5-oxopyrrolidin-3-yl)pyridin-3-yl)-1H-pyrazolo[4,3-b]pyridin-5-yl)-2,3-dihydro-1H-indene-1-carbonitrile], the IC50 was less than 6 nM in test [1], 6 to 40 nM in test [2] (setting [6]) and less than 6 nM in test [3].
Turning to `COc1cc2[nH]nc(-c3cnn(C)c3)c2nc1-c1cccc2c1CCC2C#N` (stereo not drawn) [Example 9, 4-(6-Methoxy-3-(1-methyl-1H-pyrazol-4-yl)-1H-pyrazolo[4,3-b]pyridin-5-yl)-2,3-dihydro-1H-indene-1-carbonitrile], the IC50 in test [1] was less than 6 nM; in test [2] (setting [4]), 40 to 100 nM.
As for `COc1cc2[nH]nc(-c3cnn(C)c3)c2nc1-c1cccc2c1C[C@H](F)[C@@H]2O` [Example 13, 2-Fluoro-4-(6-methoxy-3-(1-methyl-1H-pyrazol-4-yl)-1H-pyrazolo[4,3-b]pyridin-5-yl)-2,3-dihydro-1H-inden-1-ol], the values for the IC50 in test [1] and in test [2] (setting [4]) were less than 6 nM and greater than 100 nM, respectively.
Taken in the same sequence, the figures for `COc1cc2[nH]nc(-c3cnn(C4CCNC4)c3)c2nc1-c1cccc2c1CCC2` (stereo not drawn) [Example 14, 5-(2,3-Dihydro-1H-inden-4-yl)-6-methoxy-3-(1-(pyrrolidin-3-yl)-1H-pyrazol-4-yl)-1H-pyrazolo[4,3-b]pyridine] were less than 6 nM and 40 to 100 nM.
In the same order, the values of `CCN1CCC(n2cc(-c3n[nH]c4cc(OC)c(-c5cccc6c5CCC6)nc34)cn2)C1` (stereo not drawn) [Example 15, 5-(2,3-Dihydro-1H-inden-4-yl)-3-(1-(1-ethylpyrrolidin-3-yl)-1H-pyrazol-4-yl)-6-methoxy-1H-pyrazolo[4,3-b]pyridine] are less than 6 nM and 40 to 100 nM.
In the same order, the values of `CCOc1cc2[nH]nc(-c3cnn(C)c3)c2nc1-c1cccc2c1CCC2` [Example 26, 5-(2,3-Dihydro-1H-inden-4-yl)-6-ethoxy-3-(1-methyl-1H-pyrazol-4-yl)-1H-pyrazolo[4,3-b]pyridine] are less than 6 nM and greater than 100 nM.
Turning to `COc1cc2[nH]nc(-c3cnn(-c4ccncc4)c3)c2nc1-c1cccc2c1CCC2` [Example 32, 5-(2,3-Dihydro-1H-inden-4-yl)-6-methoxy-3-(1-(pyridin-4-yl)-1H-pyrazol-4-yl)-1H-pyrazolo[4,3-b]pyridine], the IC50 in test [1] was less than 6 nM; in test [2] (setting [4]), greater than 100 nM.
Taken in the same sequence, the figures for `Cn1cc(-c2n[nH]c3cc(C(F)F)c(-c4cccc5c4CCC5)nc23)cn1` [Example 35, 6-(Difluoromethyl)-5-(2,3-dihydro-1H-inden-4-yl)-3-(1-methyl-1H-pyrazol-4-yl)-1H-pyrazolo[4,3-b]pyridine] were less than 6 nM and 40 to 100 nM.
Take `CNc1cc2[nH]nc(-c3cnn(C)c3)c2nc1-c1cccc2c1CCC2` [Example 37, 5-(2,3-Dihydro-1H-inden-4-yl)-N-methyl-3-(1-methyl-1H-pyrazol-4-yl)-1H-pyrazolo[4,3-b]pyridin-6-amine]: the IC50 in test [1] was less than 6 nM; in test [2] (setting [4]), greater than 100 nM.
`COc1cc2[nH]nc(-c3ccc(N4CCN(C)[C@H](C)C4)nc3)c2nc1-c1cccc(C)c1C` [Example 47, (R)-5-(2,3-Dimethylphenyl)-3-(6-(3,4-dimethylpiperazin-1-yl)pyridin-3-yl)-6-methoxy-1H-pyrazolo[4,3-b]pyridine]: the IC50 in test [1] was less than 6 nM; in test [2] (setting [4]), 40 to 100 nM.
Taken in the same sequence, the figures for `COc1cc2[nH]nc(-c3ccc(N4C[C@@H]5C[C@H]4CN5C)nc3)c2nc1-c1cccc(C)c1C` [Example 49, 5-(2,3-Dimethylphenyl)-6-methoxy-3-(6-((1S,4S)-5-methyl-2,5-diazabicyclo[2.2.1]heptan-2-yl)pyridin-3-yl)-1H-pyrazolo[4,3-b]pyridine] were less than 6 nM and 40 to 100 nM.
As for `COc1cc2[nH]nc(-c3cnn([C@H]4CC[C@@H](NC(C)=O)CC4)c3)c2nc1-c1cccc2c1CCC2` [Example 53, N-((cis)-4-(4-(5-(2,3-Dihydro-1H-inden-4-yl)-6-methoxy-1H-pyrazolo[4,3-b]pyridin-3-yl)-1H-pyrazol-1-yl)cyclohexyl)acetamide], the IC50 was less than 6 nM in test [1] and 40 to 100 nM in test [2] (setting [4]).
In the case of `COc1cc2[nH]nc(-c3ccc(N4CCN(C)CC4C)nc3)c2nc1-c1cccc2c1CCC2` (stereo not drawn) [Example 54, 5-(2,3-Dihydro-1H-inden-4-yl)-3-(6-(2,4-dimethylpiperazin-1-yl)pyridin-3-yl)-6-methoxy-1H-pyrazolo[4,3-b]pyridine], the IC50 in test [1] is less than 6 nM; in test [2] (setting [4]), 40 to 100 nM.
For `COc1cc2[nH]nc(-c3ccc(N4CCN(C(C)=O)CC4)nc3)c2nc1-c1cccc(CC#N)c1C` [Example 55, 2-(3-(3-(6-(4-Acetylpiperazin-1-yl)pyridin-3-yl)-6-methoxy-1H-pyrazolo[4,3-b]pyridin-5-yl)-2-methylphenyl)acetonitrile], the IC50 is less than 6 nM in test [1] and greater than 100 nM in test [2] (setting [4]).
As to `COc1cc2[nH]nc(-c3ccc(N4CCN(C(C)=O)CC4)nc3)c2nc1-c1cccc2c1CCC2` [Example 64, 1-(4-(5-(5-(2,3-Dihydro-1H-inden-4-yl)-6-methoxy-1H-pyrazolo[4,3-b]pyridin-3-yl)pyridin-2-yl)piperazin-1-yl)ethan-1-one], the IC50 in test [1] is less than 6 nM; in test [2] (setting [6]), 6 to 40 nM.
Turning to `COc1cc2[nH]nc(-c3cnn(C4CC4)c3)c2nc1-c1cccc(C)c1C` [Example 67, 3-(1-Cyclopropyl-1H-pyrazol-4-yl)-5-(2,3-dimethylphenyl)-6-methoxy-1H-pyrazolo[4,3-b]pyridine], the IC50 is less than 6 nM in test [1] and greater than 100 nM in test [2] (setting [4]).
In the case of `COc1cc2[nH]nc(-c3cnn(C4CCN(C(C)=O)CC4)c3)c2nc1-c1cccc(C)c1C` [Example 69, 1-(4-(4-(5-(2,3-Dimethylphenyl)-6-methoxy-1H-pyrazolo[4,3-b]pyridin-3-yl)-1H-pyrazol-1-yl)piperidin-1-yl)ethan-1-one], the IC50 in test [1] is less than 6 nM; in test [2] (setting [4]) it was greater than 100 nM.
In the same order, the values of `COC(=O)N1CCC(n2cc(-c3n[nH]c4cc(OC)c(-c5cccc(C)c5C)nc34)cn2)CC1` [Example 70, Methyl 4-(4-(5-(2,3-dimethylphenyl)-6-methoxy-1H-pyrazolo[4,3-b]pyridin-3-yl)-1H-pyrazol-1-yl)piperidine-1-carboxylate] are less than 6 nM and greater than 100 nM.
In the case of `COC(=O)N1CC(n2cc(-c3n[nH]c4cc(OC)c(-c5cccc(C)c5C)nc34)cn2)C1` [Example 71, Methyl 3-(4-(5-(2,3-dimethylphenyl)-6-methoxy-1H-pyrazolo[4,3-b]pyridin-3-yl)-1H-pyrazol-1-yl)azetidine-1-carboxylate], the values for the IC50 in test [1] and in test [2] (setting [4]) were less than 6 nM and greater than 100 nM, respectively.
Taken in the same sequence, the figures for `COc1cc2[nH]nc(-c3ccc(N4CC[C@H](N(C)C(=O)CO)C4)nc3)c2nc1-c1cccc(C)c1C` [Example 88, (S)-N-(1-(5-(5-(2,3-Dimethylphenyl)-6-methoxy-1H-pyrazolo[4,3-b]pyridin-3-yl)pyridin-2-yl)pyrrolidin-3-yl)-2-hydroxy-N-methylacetamide] were less than 6 nM and 40 to 100 nM.
